# Results: the supplement of paper PMC3974653
# Counter-ions that a name gives are not always drawn.
# Tested on: MTT (mouse pheochromocytoma)
# Assay: IC50 of cell viability (ATP content)
# Conditions: (24 or 48 h)
# How it was run: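 CellTiter-Glo ATP luminescence, read after 15 minutes, was used to assess MTT mouse pheochromocytoma cells treated for 24 or 48 hrs with library compounds (final 0.5 nM to 46 µM, 8 concentrations). The cells had been plated at 5 µl of 200,000 cells/ml per well in white 1536-well plates in DMEM with 5% FBS and 1% horse serum and cultured overnight at 37°C, 5% CO2. Normalisation set positive-control wells to 100% and DMSO wells to 0%. The IC50 was then determined by four-parameter logistic fitting.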
row,SMILES,IC50 of cell viability [µM]
1,CN(C)CCc1c[nH]c2ccc(O)cc12 [Bufotenine],> 46
2,CCCCNc1cc(C(=O)O)cc([S+](N)(=O)[O-])c1Oc1ccccc1 [Bumetanide],> 46
3,Cc1cc(-n2nc3ccc(Cl)cc3n2)c(O)c(C(C)(C)C)c1 [Bumetrizole],> 46
4,COC12CCC3(CC1[C@](C)(O)C(C)(C)C)[C@H]1Cc4ccc(O)c5c4[C@@]3(CCN1CC1CC1)C2O5 (some centres not stated) [Bupenorphine],> 46
5,C[C@H](NC(C)(C)C)C(=O)c1cccc(Cl)c1 [Bupropion hydrochloride],> 46
6,C[S+](=O)([O-])OCCCCO[S+](C)(=O)[O-] [Busulfan],> 46
7,CCCCN(CCCC)CCCOC(=O)c1ccc(N)cc1 [Butacaine],> 46
8,CCCCNC(C)(C)[PH](=O)O [Butafosfan],> 46
9,CCC(C(=O)OCCOCCN(CC)CC)c1ccccc1 (configuration not stated) [Butamirate citrate],> 46
10,CN(Cc1ccc(C(C)(C)C)cc1)Cc1cccc2ccccc12 [Butenafina],> 46
11,OC(C#CCN1CCCC1)(c1ccccc1)c1ccccc1 [Butinolina],> 46
12,NCC[C@H](O)C(=O)N[C@@H]1C[C@@H](N)[C@@H](O[C@@H]2O[C@@H](CN)[C@@H](O)[C@@H](O)[C@H]2N)[C@@H](O[C@@H]2O[C@@H](CO)[C@@H](O)[C@H]2O)[C@H]1O [Butirosin disulfate salt],> 46
13,Clc1ccc(CC[C@H](Cn2ccnc2)Sc2c(Cl)cccc2Cl)cc1 [Butoconazole nitrate],> 46
14,CCCC(=O)OC(C(Cl)(Cl)Cl)P(=O)(OC)OC (configuration not stated) [Butonate],> 46
15,CCCCOC(=O)c1ccccc1C(=O)OCc1ccccc1 [Butyl benzyl phthalate],> 46
16,Cc1cc(C(C)(C)C)c(O)c(C(C)(C)C)c1 [Butylated hydroxytoluene],> 46
17,CCCCOC(=O)c1ccc(O)cc1 [Butylparaben],> 46
18,Cc1cc(-c2ccc(/N=N/c3ccc4c([S+](=O)([O-])O)cc([S+](=O)([O-])O)c(N)c4c3O)c(C)c2)ccc1/N=N/c1ccc2c([S+](=O)([O-])O)cc([S+](=O)([O-])O)c(N)c2c1O [C.I. Direct Blue 53],> 46
19,C=CCN1CC(C(=O)N(CCCN(C)C)C(=O)NCC)CC2c3cccc4[nH]cc(c34)CC21 (configuration not stated) [CABERGOLINE],> 46
20,OC(=O)CN(CC(O)=O)CC1=CC/2=C(OC/3=C/C(=O)/C(=C\C3=C2C4=CC=CC=C4C(O)=O)CN(CC(O)=O)CC(O)=O)C=C1O [CALCEIN],> 46
21,O=C(Nc1ccc(C(=O)O)c(O)c1)c1ccccc1 [CALCII BENZAMIDOSALICYLAS],> 46
22,C=C1/C(=C\C=C2/CCC[C@]3(C)[C@@H]([C@H](C)/C=C/[C@@H](O)C4CC4)CC[C@@H]23)C[C@@H](O)C[C@@H]1O [CALCIPOTRIENE],> 46
23,C=C1/C(=C\C=C2/CCC[C@]3(C)[C@@H]([C@H](C)CCCC(C)(C)O)CC[C@@H]23)C[C@@H](O)C[C@@H]1O [CALCITRIOL],> 46
24,CC(C)(CO)C(O)C(=O)NCCCC(=O)[O-] (configuration not stated) [CALCIUM HOPANTENATE],> 46
25,CN(C)C(=O)COC(=O)Cc1ccc(OC(=O)c2ccc(NC(=N)N)cc2)cc1 [CAMOSTAT MESILATE],> 46
26,C=C1[C@@H]2CC[C@H](C2)C1(C)C [CAMPHENE],> 46
27,C[C@@]12CCC(=O)/C=C1/C=C\C3C2CC[C@]4(C)C3CC[C@@]45CCC(=O)O5 (some centres not stated) [CANRENONE],> 46
